{"source": "patent US20230372232A1", "about": "“ORAL CARE COMPOSITION COMPRISING SWEET POTATO-DERIVED POTATO SYRUP OR SUPERNATANT OF POTATO SYRUP” (KARAIMO NOJYO CO., LTD., priority 2020, published 2023)", "key": {"[1]": {"test_system": "Streptococcus mutans", "experiment": "Tooth plaque formation inhibition by potato syrup with malt, crystal violet A570 (Test Example 6)", "format": "cell-based", "details": "1% concentration sucrose; BHI medium, 37° C., 48 hours", "description": "A basic sample was produced by impregnating 1% concentration sucrose (white sugar) in a BHI medium and adding 0.1 mL of Streptococcus mutans liquid (approximately 1000 bacterial bodies) thereto. Next, another additive-free sample in which the sucrose (white sugar) was not at all impregnated in the basic sample was produced. There were also individually produced a sample in which 10% of the potato syrup with malt of Example 3 was added instead of the 1% concentration sucrose (white sugar) to the basic sample and a sample in which 10% of the potato syrup of Example 1-B was added instead of the 1% concentration sucrose (white sugar) to the basic sample. The respective samples were subject to a culture process at 37° C. for 48 hours. Afterwards, the supernatant liquids of the culture fluids were discarded, and then, the respective samples were washed twice with 0.2 mL of distilled water. Afterwards, 0.2 mL each of 0.1% crystal violet were added to each of the samples, a stir staining operation was performed for 20 minutes, and then, the staining fluids were discarded. The residues were washed twice with 0.2 mL of distilled water. Then, the pigment was eluted with 0.2 mL of 99.5% ethanol and the absorbance (570 nm) was measured. Based on the results, the plaque (tooth plaque) formation inhibition rates (%) were calculated."}, "[2]": {"test_system": "Streptococcus mutans", "experiment": "Tooth plaque formation inhibition, crystal violet A570 (Test Examples 3 and 4)", "format": "cell-based", "details": "1% concentration sucrose (sample 8); BHI medium, 37° C., 48 hours", "description": "A basic sample (a sample 8) was produced by impregnating 1% concentration sucrose (white sugar) in a BHI medium of twice the normal concentration and adding 0.1 mL of Streptococcus mutans liquid (approximately 1000 bacterial bodies) thereto. Next, another sample (a sample 9) in which the sucrose (white sugar) was not at all impregnated in the basic sample (the sample 8) was produced. There were also individually produced a sample (10) in which 10% of the potato syrup of Example 1-A was added instead of the 1% concentration sucrose (white sugar) to the basic sample (the sample 8), a sample (11) in which 10% of the potato syrup of Example 1-B was added instead of the 1% concentration sucrose (white sugar) to the basic sample (the sample 8), and a sample (12) in which 10% of the potato syrup of Example 1-C was added instead of the 1% concentration sucrose (white sugar) to the basic sample (the sample 8). The respective samples were subject to a culture process at 37° C. for 48 hours. […] Then, the pigment was eluted with 0.2 mL of 99.5% ethanol, and the absorbance (570 nm) was measured. Based on the results, the plaque (tooth plaque) formation inhibition rates (%) were calculated. The results are shown in FIG. 3. plaque formation inhibition rate (%)=[A570(no sucrose added)−A570 (sample added)]/A570(no sucrose added)×100 A570: absorbance of crystal violet eluted with ethanol at 570 nm. […]"}}, "data": [{"smiles": "OC[C@H]1O[C@@](CO)(O[C@H]2O[C@H](CO)[C@@H](O)[C@H](O)[C@H]2O)[C@@H](O)[C@@H]1O", "note": "[sucrose]", "values": [{"measurement": "plaque (tooth plaque) formation", "setting": "[1]", "result": "the plaque (tooth plaque) rapidly grew"}, {"measurement": "plaque (tooth plaque) formation", "setting": "[2]", "result": "the plaque (tooth plaque) rapidly grew"}]}]}
